These results are taken from patent US20240327412A1, “FACTOR XIIA INHIBITORS” (KALVISTA PHARMACEUTICALS LIMITED, priority 2021, published 2024).

Holding throughout (assay type): biochemical
Test [1] deals with T1, Human Factor XIIa (Homo sapiens, UniProt P00748).
T1 construct: Proteolytic cleavage of FXII to heavy and light chains of FXIIa dramatically increases catalytic activity; purchased Enzyme Research Laboratories
T1 sequence (P00748 373-615 limits assumed): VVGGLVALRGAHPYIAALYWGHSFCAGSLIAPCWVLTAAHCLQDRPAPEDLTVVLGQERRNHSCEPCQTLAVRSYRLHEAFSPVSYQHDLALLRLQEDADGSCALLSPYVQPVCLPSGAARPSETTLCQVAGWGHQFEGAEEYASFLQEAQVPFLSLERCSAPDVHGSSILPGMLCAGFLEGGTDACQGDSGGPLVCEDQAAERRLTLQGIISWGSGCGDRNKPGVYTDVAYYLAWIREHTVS
T1 sequence (P00748 20-372 partner limits assumed): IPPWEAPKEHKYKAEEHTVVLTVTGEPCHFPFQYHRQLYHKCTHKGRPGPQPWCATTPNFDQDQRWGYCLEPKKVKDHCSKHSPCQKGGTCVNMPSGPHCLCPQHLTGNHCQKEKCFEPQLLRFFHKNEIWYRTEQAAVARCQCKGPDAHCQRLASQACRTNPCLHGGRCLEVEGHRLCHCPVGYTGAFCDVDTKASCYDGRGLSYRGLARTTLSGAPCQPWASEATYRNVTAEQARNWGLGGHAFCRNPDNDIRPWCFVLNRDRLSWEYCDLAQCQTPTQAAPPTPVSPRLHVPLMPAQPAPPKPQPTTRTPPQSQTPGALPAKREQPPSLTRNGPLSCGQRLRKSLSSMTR
Kind of test: Determination of FXIIa inhibition (fluorogenic substrate H-DPro-Phe-Arg-AFC, IC50 assay). The following applies: substrate at Km concentration, 25° C.; category scale; read-out: Human FXII IC50 (nm). The gist of the method:
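At substrate Km and 25° C., the rate of AFC release from H-DPro-Phe-Arg-AFC by human Factor XIIa was followed for 5 min across compound concentrations. Inhibition was derived as percent of uninhibited rate, giving IC50.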

The target of test [2] is T2, Plasma Kallikrein (Homo sapiens, UniProt P03952).
T2 construct: FXIIa converts plasma prekallikrein (PK) to plasma kallikrein (PKa)
Kind of test: Related protease inhibition: Plasma Kallikrein (fluorogenic substrate at Km). The conditions noted are these: class symbols per Table 18, read-out: IC50 (human PKal). Summed up: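 Human enzymes; fluorogenic substrate at Km for thrombin, trypsin and plasma kallikrein, but fixed at 100 μM for FXIa. Fluorescence release followed over 5 min at 25 °C, linear rate expressed as % of uninhibited activity; IC50 = inhibitor concentration giving 50% inhibition.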

Test [3] concerns the target KLK1 (Homo sapiens, UniProt P06870). Kind of test: Related protease inhibition: KLK1 (fluorogenic substrate at Km). The following applies: class symbols per Table 18. As to the method:
(§1) In vitro inhibition of related proteases was determined using an IC50 assay based on standard literature methods (see e.g. Shori et al., Biochem. Pharmacol., 1992, 43, 1209; Bouckaert et al., European Journal of Medicinal Chemistry 110 (2016) 181). Human serine protease enzyme Plasma Kallikrein, KLK1, FXa, Plasmin, Thrombin and Trypsin were assayed for enzymatic activity using an appropriate fluorogenic substrate at Km concentration, FXIa at fixed substrate concentration of 100 μM and various concentrations of the test compound. Protease activity was measured by monitoring the accumulation of liberated fluorescence from the substrate over 5 min at 25° C. The linear rate of fluorescence increase per minute was expressed as percentage (%) activity. IC50 values were calculated as the concentration of inhibitor giving 50% inhibition of the uninhibited enzyme activity (100%).

For test [4], the target named is FXa (Homo sapiens, UniProt P00742). As to the kind of experiment: Related protease inhibition: FXa (fluorogenic substrate at Km). The following applies: class symbols per Table 18. The protocol:
as §1

Molecules are shown by their SMILES. pIC50: −log10 of the molar value. Some results are limits rather than exact numbers.

KLK1, sequence (P06870 25-262): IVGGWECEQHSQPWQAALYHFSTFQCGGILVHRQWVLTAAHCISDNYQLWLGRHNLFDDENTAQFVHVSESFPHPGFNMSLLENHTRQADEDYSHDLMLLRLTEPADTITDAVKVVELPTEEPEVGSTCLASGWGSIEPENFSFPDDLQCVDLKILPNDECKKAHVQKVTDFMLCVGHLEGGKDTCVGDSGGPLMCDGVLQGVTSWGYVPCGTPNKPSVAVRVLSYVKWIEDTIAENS
FXa, sequence (P00742 235-488 limits assumed): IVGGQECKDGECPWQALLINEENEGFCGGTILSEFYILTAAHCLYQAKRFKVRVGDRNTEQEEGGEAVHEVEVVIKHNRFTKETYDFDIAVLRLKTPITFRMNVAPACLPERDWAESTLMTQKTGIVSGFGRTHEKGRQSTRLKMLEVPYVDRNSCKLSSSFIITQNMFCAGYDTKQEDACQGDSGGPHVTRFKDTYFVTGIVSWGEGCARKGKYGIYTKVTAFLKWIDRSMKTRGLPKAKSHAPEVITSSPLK
FXa, sequence (P00742 41-179 partner limits assumed): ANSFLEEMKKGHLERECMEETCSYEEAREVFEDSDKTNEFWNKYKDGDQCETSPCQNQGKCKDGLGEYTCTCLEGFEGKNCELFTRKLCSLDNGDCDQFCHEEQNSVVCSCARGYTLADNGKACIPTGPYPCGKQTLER
T2 sequence (P03952 391-638 limits assumed): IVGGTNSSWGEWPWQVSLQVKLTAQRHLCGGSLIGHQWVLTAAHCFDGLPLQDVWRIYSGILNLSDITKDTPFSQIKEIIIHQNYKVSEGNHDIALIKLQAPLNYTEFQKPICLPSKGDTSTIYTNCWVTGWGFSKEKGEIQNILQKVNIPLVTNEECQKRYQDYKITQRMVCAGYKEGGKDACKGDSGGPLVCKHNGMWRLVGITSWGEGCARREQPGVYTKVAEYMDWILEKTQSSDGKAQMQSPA
T2 sequence (P03952 20-390 partner limits assumed): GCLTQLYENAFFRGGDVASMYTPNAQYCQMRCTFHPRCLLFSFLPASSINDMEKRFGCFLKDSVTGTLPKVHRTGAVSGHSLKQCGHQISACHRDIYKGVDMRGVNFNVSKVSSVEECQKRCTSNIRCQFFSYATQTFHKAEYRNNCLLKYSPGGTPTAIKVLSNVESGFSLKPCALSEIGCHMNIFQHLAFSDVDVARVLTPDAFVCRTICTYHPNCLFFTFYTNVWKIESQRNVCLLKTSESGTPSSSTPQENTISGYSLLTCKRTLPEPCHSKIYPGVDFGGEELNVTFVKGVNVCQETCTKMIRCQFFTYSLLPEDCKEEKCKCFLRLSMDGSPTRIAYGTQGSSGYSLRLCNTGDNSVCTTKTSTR

Usually pIC50 stands for −log10 of the IC50, conventionally taken in molar units. On to `c1cc(NCC23CC(COc4ccn5ccnc5c4)(C2)C3)c2cc[nH]c2n1` [Example 1009, N-((3-((imidazo[1,2-a]pyridin-7-yloxy)methyl)bicyclo[1.1.1]pentan-1-yl)methyl)-1H-pyrrolo[2,3-b]pyridin-4-amine], for which the pIC50 in test [1] was 4.40 to 5.00; in test [2], below 4.00; in test [3], below 4.00.
In the case of `Clc1cc2c(NCC34CC(COc5ccn6ccnc6c5)(C3)C4)ccnc2[nH]1` [Example 1010], the values for the pIC50 in test [1], in test [3] and in test [4] were 6.00 to 6.52, below 4.40 and 5.52 to 6.00, respectively.
In the case of `CN1Cc2ccc(OCC34CC(CNc5cccc6c(N)nccc56)(CO3)C4)cc2C1=O` [Example 2211, 6-((4-(((1-aminoisoquinolin-5-yl)amino)methyl)-2-oxabicyclo[2.1.1]hexan-1-yl)methoxy)-2-methylisoindolin-1-one], the pIC50 in test [1] is 6.52 to 7.00; in test [2], below 5.40; in test [3], 5.52 to 6.00; in test [4], below 4.40.
Turning to `Nc1nccc2c(NCC34CC(COc5ccn6cc(C(F)F)nc6c5)(CO3)C4)cccc12` [Example 6613, N5-((4-(((2-(difluoromethyl)imidazo[1,2-a]pyridin-7-yl)oxy)methyl)-2-oxabicyclo[2.1.1]hexan-1-yl)methyl)isoquinoline-1,5-diamine], the pIC50 in test [1] is 6.00 to 6.52; in test [3] it was 5.00 to 5.52; in test [4], 4.40 to 5.00.
As for `Nc1nccc2c(NCC34CC(COc5ccn6ccnc6n5)(CO3)C4)cccc12` [Example 6614, N5-((4-((imidazo[1,2-a]pyrimidin-7-yloxy)methyl)-2-oxabicyclo[2.1.1]hexan-1-yl)methyl)isoquinoline-1,5-diamine], the pIC50 in test [1] was 6.52 to 7.00; in test [2], below 5.40; in test [3], 5.00 to 5.52; in test [4], below 4.40.
Turning to `Nc1nccc2c(NCC34CC(COc5ccc6nc(C(F)(F)F)cn6n5)(CO3)C4)cccc12` [Example 6615, N5-((4-(((2-(trifluoromethyl)imidazo[1,2-b]pyridazin-6-yl)oxy)methyl)-2-oxabicyclo[2.1.1]hexan-1-yl)methyl)isoquinoline-1,5-diamine], the pIC50 in test [1] was 5.00 to 5.52; in test [3] it was 5.00 to 5.52; in test [4] it was below 4.40.
Regarding `Nc1nccc2c(NCC34CC(COc5cn6ccnc6cn5)(CO3)C4)cccc12` [Example 6616, N5-((4-((imidazo[1,2-a]pyrazin-6-yloxy)methyl)-2-oxabicyclo[2.1.1]hexan-1-yl)methyl)isoquinoline-1,5-diamine], the pIC50 is 6.00 to 6.52 in test [1], 5.00 to 5.52 in test [3] and below 4.40 in test [4].
For the compound `Cc1c(OCC23COC(CNc4cccc5c(N)nccc45)(C2)C3)ccc2nccn12` [Example 6626, N5-((4-(((5-methylimidazo[1,2-a]pyridin-6-yl)oxy)methyl)-2-oxabicyclo[2.1.1]hexan-1-yl)methyl)isoquinoline-1,5-diamine], the pIC50 in test [1] is 7.00 to 8.00; in test [3], 5.52 to 6.00.
The matching figures for `Nc1nccc2c(NCC34CC(COc5ccc6ncc(C(F)(F)F)n6c5)(CO3)C4)cccc12` [Example 6627, N5-((4-(((3-(trifluoromethyl)imidazo[1,2-a]pyridin-6-yl)oxy)methyl)-2-oxabicyclo[2.1.1]hexan-1-yl)methyl)isoquinoline-1,5-diamine]: 5.52 to 6.00 and 5.00 to 5.52.
For the compound `CN1Cc2ccc(OCC34COC(CNc5cccc6c(N)nccc56)(C3)C4)cc2C1=O` [Example 6628, 6-((1-(((1-aminoisoquinolin-5-yl)amino)methyl)-2-oxabicyclo[2.1.1]hexan-4-yl)methoxy)-2-methylisoindolin-1-one], the pIC50 was 6.52 to 7.00 in test [1] and 5.00 to 5.52 in test [3].
For `Nc1nccc2c(N3CCC4(CC(COc5ccn6ccnc6c5)C4)C3)cccc12` (stereo not drawn) [Example 8807, 5-(cis*-2-((imidazo[1,2-a]pyridin-7-yloxy)methyl)-6-azaspiro[3.4]octan-6-yl)isoquinolin-1-amine], the pIC50 in test [1] was 6.00 to 6.52; in test [3], 4.40 to 5.00.
With `Clc1ccc(NCC23CC(COc4ccn5ccnc5c4)(CCO2)C3)cc1` [Example 10918, 4-chloro-N-((5-((imidazo[1,2-a]pyridin-7-yloxy)methyl)-2-oxabicyclo[3.1.1]heptan-1-yl)methyl)aniline], the negative-log IC50 (pIC50) in test [2] is below 4.40; in test [3] it was below 4.00; in test [4], below 4.40.
Regarding `Clc1cccc(NCC23CC(COc4ccn5ccnc5c4)(CCO2)C3)c1` [Example 10919, 3-chloro-N-((5-((imidazo[1,2-a]pyridin-7-yloxy)methyl)-2-oxabicyclo[3.1.1]heptan-1-yl)methyl)aniline], the pIC50 in test [2] was below 4.40; in test [3] it was below 4.00; in test [4] it was below 4.40.
As for `Clc1ccc2c(NCC34CC(COc5ccn6ccnc6c5)(CCO3)C4)ccnc2c1` [Example 10921, 7-chloro-N-((5-((imidazo[1,2-a]pyridin-7-yloxy)methyl)-2-oxabicyclo[3.1.1]heptan-1-yl)methyl)quinolin-4-amine], the pIC50 was 4.00 to 4.40 in test [1] and 4.40 to 5.00 in test [3].
Take `Nc1ncc(Cl)c2cc(NCC34CC(COc5ccn6ccnc6c5)(CCO3)C4)ccc12` [Example 10922, 4-chloro-N6-((5-((imidazo[1,2-a]pyridin-7-yloxy)methyl)-2-oxabicyclo[3.1.1]heptan-1-yl)methyl)isoquinoline-1,6-diamine]: the pIC50 in test [1] and in test [3] was 6.00 to 6.52 throughout.
`Cc1c(OCC23CCOC(CNc4cccc5c(N)nccc45)(C2)C3)ccn2ccnc12` [Example 10923, N5-((5-(((8-methylimidazo[1,2-a]pyridin-7-yl)oxy)methyl)-2-oxabicyclo[3.1.1]heptan-1-yl)methyl)isoquinoline-1,5-diamine]: the pIC50 in test [1] is 6.52 to 7.00; in test [3], 6.00 to 6.52.
Take `Nc1nccc2c(NCC34CC(COc5cc(Cl)c6nccn6c5)(CCO3)C4)cccc12` [Example 10924, N5-((5-(((8-chloroimidazo[1,2-a]pyridin-6-yl)oxy)methyl)-2-oxabicyclo[3.1.1]heptan-1-yl)methyl)isoquinoline-1,5-diamine]: the results for the pIC50 in test [1] and in test [3] were 6.52 to 7.00 and 5.00 to 5.52, respectively.
On the same counts, the results for `Cc1cc(OCC23CCOC(CNc4cccc5c(N)nccc45)(C2)C3)cc2nccn12` [Example 10925, N5-((5-(((5-methylimidazo[1,2-a]pyridin-7-yl)oxy)methyl)-2-oxabicyclo[3.1.1]heptan-1-yl)methyl)isoquinoline-1,5-diamine] are 7.00 to 8.00 and 5.00 to 5.52.
For `Nc1nccc2c(NCC34CCCC(COc5ccc6nccn6c5)(C3)C4)cccc12` [Example 10942, N5-((5-((imidazo[1,2-a]pyridin-6-yloxy)methyl)bicyclo[3.1.1]heptan-1-yl)methyl)isoquinoline-1,5-diamine], the pIC50 in test [1] is 6.52 to 7.00; in test [3] it was 5.00 to 5.52; in test [4] it was below 4.40.
As for `Cn1ccc(OCC23CN(C(=O)OCc4ccccc4)C(CNc4ccc5c(N)nccc5c4)(C2)C3)cc1=O` [Example 12010, benzyl 1-(((1-aminoisoquinolin-6-yl)amino)methyl)-4-(((1-methyl-2-oxo-1,2-dihydropyridin-4-yl)oxy)methyl)-2-azabicyclo[2.1.1]hexane-2-carboxylate], the negative logarithm of the IC50 (pIC50) in test [1] is 6.52 to 7.00; in test [3] it was 7.00 to 8.00.
